Our source for the IC50 values is US9376418B2, “Substituted pyridine spleen tyrosine kinase (SYK) inhibitors” (Merck Sharp & Dohme Corp., priority 2012, dated 2016).

The first assay concerns the target T1, recombinant human GST-SYK (Homo sapiens, UniProt P43405).
T1 construct: purchased Carna Biosciences 08-176
The experiment in a line: Homogeneous Time-Resolved Fluorescence (HTRF) assay for the recombinant human Syk enzyme. The assay is classed as biochemical. Particulars: HTRF assay, recombinant human GST-SYK; IC50 given as class symbols; read-out: rhSYK Activity. A digest of the protocol:
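Enzyme […], pH 7.5 Tris/tween/DTT buffer; 10 min preincubation with compound, RT. Start: 250 nM biotin-peptide, 25 μM ATP, 5 mM Mg; 45′ RT. Stop/detect: 40 mM EDTA, Eu-anti-pTyr, SA-APC; read 30 min later.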
Background: Time-resolved FRET reads energy transfer from a long-lived donor to a nearby acceptor.
Take `Cc1cc(Nc2nccc(C(F)(F)F)n2)cc(-c2cncc(C3(O)COC3)c2)c1` [Example 9.79, 3-[5-(3-methyl-5-{[4-(trifluoromethyl)pyrimidin-2-yl]amino}phenyl)pyridin-3-yl]oxetan-3-ol]: the IC50 was less than 100 nM.
With `Cc1cc(Nc2nccc(C(F)(F)F)n2)cc(-c2ccc(C(=O)NC3CCNC3=O)nc2)c1` (stereo not drawn) [Example 16.26, 5-(3-methyl-5-{[4-(trifluoromethyl)pyrimidin-2-yl]amino}phenyl)-N-(2-oxopyrrolidin-3-yl)pyridine-2-carboxamide], the IC50 was less than 100 nM.
On the same count and under the same terms, the result for `Cc1cc(Nc2nccc(C(F)(F)F)n2)cc(-c2ccnc(N[C@@H]3CCC(=O)NC3)c2)c1` [Example 15.66, (5R)-5-{[4-(3-methyl-5-{[4-(trifluoromethyl)pyrimidin-2-yl]amino}phenyl)pyridin-2-yl]amino}piperidin-2-one] reads less than 100 nM; that for `Cc1cc(Nc2nccc(C)n2)cc(-c2ccnc(CCC(=O)O)c2)c1` [Example 2.135, 3-(4-{3-methyl-5-[(4-methylpyrimidin-2-yl)amino]phenyl}pyridin-2-yl)propanoic acid], less than 100 nM; that for `Cc1cc(Nc2nccc(C(F)(F)F)n2)cc(-c2ccnc(Br)c2)c1` [Example 2.127, N-[3-(2-bromopyridin-4-yl)-5-methylphenyl]-4-(trifluoromethyl)pyrimidin-2-amine], 100 to 1000 nM.
On the same count and under the same terms, the result for `Cc1cc(Nc2nccc(C(F)(F)F)n2)cc(-c2cnc3c(c2)OCCN3)c1` [Example 2.52, N-[3-(3,4-dihydro-2H-pyrido[3,2-b][1,4]oxazin-7-yl)-5-methylphenyl]-4-(trifluoromethyl)pyrimidin-2-amine] reads less than 100 nM; that for `Cc1cc(Nc2nccc(C)n2)cc(-c2cccc(CCC(=O)O)n2)c1` [Example 2.35, 3-(6-{3-methyl-5-[(4-methylpyrimidin-2-yl)amino]phenyl}pyridin-2-yl)propanoic acid], 100 to 1000 nM; that for `Cc1cc(Nc2nccc(C)n2)cc(-c2ccc(C(C)(O)[C@H]3CC[C@H](C(=O)O)CC3)nc2)c1` (single isomer, unassigned) [Example 9.27, cis-4-[(1S or 1R)-1-hydroxy-1-(5-{3-methyl-5-[(4-methylpyrimidin-2-yl)amino]phenyl}pyridin-2-yl)ethyl]cyclohexanecarboxylic acid], less than 100 nM.
Take `Cc1cc(Nc2nccc(C(F)(F)F)n2)cc(-c2ccnc(NCc3cn(C)cn3)c2)c1` [Example 15.40, N-[3-methyl-5-(2-{[(1-methyl-1H-imidazol-4-yl)methyl]amino}pyridin-4-yl)phenyl]-4-(trifluoromethyl)pyrimidin-2-amine]: the IC50 fell in the range of 100 to 1000 nM.
Take `COc1ccnc(Nc2cc(C)cc(-c3cncc(CCC(=O)O)c3)c2)n1` [Example 2.84, 3-(5-{3-[(4-methoxypyrimidin-2-yl)amino]-5-methylphenyl}pyridin-3-yl)propanoic acid]: the IC50 was less than 100 nM.
Consider `Cc1cc(Nc2nccc(C(F)(F)F)n2)cc(-c2cccc(CCC(=O)O)n2)c1` [Example 2.31, 3-[6-(3-methyl-5-{[4-(trifluoromethyl)pyrimidin-2-yl]amino}phenyl)pyridin-2-yl]propanoic acid], for which the IC50 is less than 100 nM.
The same measure, in the same setting: the result for `Cn1c(-c2cccc(Nc3nccc(C(F)(F)F)n3)c2)cccc1=O` [Example 5.3, 1-methyl-6-(3-{[4-(trifluoromethyl)pyrimidin-2-yl]amino}phenyl)pyridin-2(1H)-one] reads 100 to 1000 nM; that for `Cc1cc(Nc2nccc(C(F)(F)F)n2)cc(-c2ccc(NC(C)(CC(F)(F)F)c3nnn[nH]3)nc2)c1` (stereo not drawn) [Example 18.7, N-[3-methyl-5-(6-{[4,4,4-trifluoro-2-(1H-tetrazol-5-yl)butan-2-yl]amino}pyridin-3-yl)phenyl]-4-(trifluoromethyl)pyrimidin-2-amine], less than 100 nM; that for `CNc1ncc(-c2cc(C)cc(Nc3nccc(C(F)(F)F)n3)c2)cc1C(=O)O` [Example 2.74, 2-(methylamino)-5-(3-methyl-5-{[4-(trifluoromethyl)pyrimidin-2-yl]amino}phenyl)pyridine-3-carboxylic acid], less than 100 nM.
As to `Cc1cc(Nc2nccc(C(F)(F)F)n2)cc(-c2ccc(NC3COC3)nc2)c1` [Example 7.47, N-{3-methyl-5-[6-(oxetan-3-ylamino)pyridin-3-yl]phenyl}-4-(trifluoromethyl)pyrimidin-2-amine], the IC50 was less than 100 nM.
Still for that read-out and setting: next, `Cc1cc(Nc2nccc(C(F)(F)F)n2)cc(-c2ccc(NC3(C(=O)O)CCC3)nc2)c1` [Example 7.78, 1-{[5-(3-methyl-5-{[4-(trifluoromethyl)pyrimidin-2-yl]amino}phenyl)pyridin-2-yl]amino}cyclobutanecarboxylic acid]: less than 100 nM.
The same measure, in the same setting: next, `CC(=O)N1CCCN(c2ccc(-c3cc(C)cc(Nc4nccc(C(F)(F)F)n4)c3)cn2)CC1` [Example 7.59, N-{3-[6-(4-acetyl-1,4-diazepan-1-yl)pyridin-3-yl]-5-methylphenyl}-4-(trifluoromethyl)pyrimidin-2-amine]: less than 100 nM.
On to `Cc1cc(Nc2nccc(C(F)(F)F)n2)cc(-c2cncc([C@]3(O)CC[C@H](C(=O)O)CC3)c2)c1` [Example 9.70, trans-4-hydroxy-4-[5-(3-methyl-5-{[4-(trifluoromethyl)pyrimidin-2-yl]amino}phenyl)pyridin-3-yl]cyclohexanecarboxylic acid], for which the IC50 was less than 100 nM.
Same read-out and setting: next, `CCOC(=O)C1CCC(O)(c2ccc(-c3cc(C)cc(Nc4nccc(C(F)(F)F)n4)c3)cn2)C1(C)C` (stereo not drawn) [Example 9.47, ethyl 3-hydroxy-2,2-dimethyl-3-[5-(3-methyl-5-{[4-(trifluoromethyl)pyrimidin-2-yl]amino}phenyl)pyridin-2-yl]cyclopentanecarboxylate]: 1000 to 10000 nM; `O=C(O)[C@@H]1CCN1c1ccc(-c2cccc(Nc3nccc(C(F)(F)F)n3)c2)cn1` [Example 7.126, (2S)-1-[5-(3-{[4-(trifluoromethyl)pyrimidin-2-yl]amino}phenyl)pyridin-2-yl]azetidine-2-carboxylic acid]: less than 100 nM.
On the same count and under the same terms, the result for `Cc1cc(Nc2nccc(C(F)(F)F)n2)cc(-c2ccc(N3CCCC[C@H]3C(=O)O)nc2)c1` [Example 7.120, (2S)-1-[5-(3-methyl-5-{[4-(trifluoromethyl)pyrimidin-2-yl]amino}phenyl)pyridin-2-yl]piperidine-2-carboxylic acid] reads less than 100 nM.
Same read-out and setting: next, `Cc1cc(Nc2nccc(C(F)(F)F)n2)cc(-c2ccnc(N3CCN(S(C)(=O)=O)CC3)c2)c1` [Example 15.63, N-(3-methyl-5-{2-[4-(methylsulfonyl)piperazin-1-yl]pyridin-4-yl}phenyl)-4-(trifluoromethyl)pyrimidin-2-amine]: 100 to 1000 nM; `Cc1cc(Nc2nccc(C(F)(F)F)n2)cc(-c2ccc(NCc3cn(C)cn3)nc2)c1` [Example 7.25, N-[3-methyl-5-(6-{[(1-methyl-1H-imidazol-4-yl)methyl]amino}pyridin-3-yl)phenyl]-4-(trifluoromethyl)pyrimidin-2-amine]: less than 100 nM.
As for `OC1(c2cccc(-c3cc(Nc4nccc(C(F)(F)F)n4)cc(N4CCOCC4)c3)n2)CCC1` [Example 1.1, 1-{6-[3-(Morpholin-4-yl)-5-{[4-(trifluoromethyl)pyrimidin-2-yl]amino}phenyl]pyridin-2-yl}cyclobutanol], the IC50 lay in the range of 100 to 1000 nM.
On the same count and under the same terms, next, `Cc1cc(Nc2ncc(Cl)c(C)n2)cc(-c2ccc(N[C@H]3CC[C@H](C(=O)O)CC3)nc2)c1` [Example 2.119, trans-4-[(5-{3-[(5-chloro-4-methylpyrimidin-2-yl)amino]-5-methylphenyl}pyridin-2-yl)amino]cyclohexanecarboxylic acid]: less than 100 nM; `Cc1cc(Nc2nccc(C(F)(F)F)n2)cc(-c2cnc3c(c2)OCCN3C)c1` [Example 2.55, N-[3-methyl-5-(4-methyl-3,4-dihydro-2H-pyrido[3,2-b][1,4]oxazin-7-yl)phenyl]-4-(trifluoromethyl)pyrimidin-2-amine]: less than 100 nM.
The same measure, in the same setting: the result for `COc1cccc(-c2cc(C)cc(Nc3nccc(C(F)(F)F)n3)c2)n1` [Example 4.9] reads 100 to 1000 nM; that for `Cc1cc(Nc2nccc(C(F)(F)F)n2)cc(-c2ccc([C@]3(O)CC[C@H](C(=O)O)CC3)nc2)c1` [Example 9.35, trans 4-hydroxy-4-[5-(3-methyl-5-{[4-(trifluoromethyl)pyrimidin-2-yl]amino}phenyl)pyridin-2-yl]cyclohexanecarboxylic acid], less than 100 nM.
On to `Cc1cc(Nc2nccc(C(F)(F)F)n2)cc(-c2ccc(C(=O)NC(C)(C)CO)nc2)c1` [Example 16.11, N-(2-hydroxy-1,1-dimethylethyl)-5-(3-methyl-5-{[4-(trifluoromethyl)pyrimidin-2-yl]amino}phenyl)pyridine-2-carboxamide], for which the IC50 lay within 100 to 1000 nM.
The same measure, in the same setting: next, `Cc1cc(Nc2nccc(C(F)(F)F)n2)cc(-c2ccnc(N3CCCC34CCNC4=O)c2)c1` (stereo not drawn) [Example 15.36, 1-[4-(3-methyl-5-{[4-(trifluoromethyl)pyrimidin-2-yl]amino}phenyl)pyridin-2-yl]-1,7-diazaspiro[4.4]nonan-6-one]: 100 to 1000 nM; `Cc1cc(Nc2nccc(C(F)(F)F)n2)cc(-c2ccc(C(F)(F)C(=O)O)nc2)c1` [Example 2.116, difluoro[5-(3-methyl-5-{[4-(trifluoromethyl)pyrimidin-2-yl]amino}phenyl)pyridin-2-yl]acetic acid]: less than 100 nM.
For `Cc1cc(Nc2nccc(C(F)(F)F)n2)cc(-c2ccnc(N3CCNC(=O)C3)c2)c1` [Example 15.44, 4-[4-(3-methyl-5-{[4-(trifluoromethyl)pyrimidin-2-yl]amino}phenyl)pyridin-2-yl]piperazin-2-one], the IC50 is less than 100 nM.

The assay is the same for the next values; noted with them: recombinant GST-hSYK, 25 μM ATP, HTRF; read-out: IC50 (inhibition of human Syk activity).
For the molecule `OC1(c2cccc(-c3cc(Nc4nccc(C(F)(F)F)n4)cc(N4CCOCC4)c3)n2)CCC1` [Example 1.1, 1-{6-[3-(Morpholin-4-yl)-5-{[4-(trifluoromethyl)pyrimidin-2-yl]amino}phenyl]pyridin-2-yl}cyclobutanol], the IC50 came to 144 nM.
